Source: patent US20250163064A1, “QUINAZOLINE COMPOUNDS AND USES THEREOF AS INHIBITORS OF MUTANT KRAS PROTEINS” (AMGEN INC., priority 2022, published 2025)
Read-outs that look alike come from different tables or passages of the source.

Experiments:
[1] = target: His-tagged KRAS G12D protein (Homo sapiens (Human), UniProt P01116, G12D); assay: KRAS G12D TR-FRET Assay; type: binding; details: biotinylated KRPep-2d, 10 μM GDP
How it was run: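 His-KRAS G12D (20 nM working solution) preincubated with compound 30 min at rt in HEPES pH 7.4 buffer with 10 μM GDP, then biotinylated KRPep-2d added for 1 h. Eu-anti-His/streptavidin-d2 TR-FRET 665/615 ratio; IC50 from 4-parameter logistic fit.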

[2] = target: GDP-bound KRAS protein (aa 1-169), G12D and C118A; SOS-mediated nucleotide exchange (Homo sapiens (Human), UniProt P01116, C118A/G12D); assay: KRAS G12D Coupled Nucleotide Exchange Assay; type: biochemical; details: 2 h compound pre-incubation, GTP, cRAF AlphaScreen
How it was run: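 Read-out was AlphaScreen, with IC50 derived by 4-parameter logistic fitting. Before that, SOS (aa 564-1049) and GTP drove 30 min exchange on His-tagged KRAS 1-169 carrying G12D and C118A, following a 2 h compound preincubation in 25 mM HEPES pH 7.4, 10 mM MgCl2, 0.01% Triton X-100.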

[3] = system: Phosphorylation of ERK1/2 in AsPC-1 cells; assay: Phospho-ERK1/2 MSD Assay; type: cell-based
How it was run: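 AsPC-1 cells in 10% FBS RPMI 1640 were treated with a compound dose titration for 2 h at 37° C, then lysed in RIPA buffer with protease and phosphatase inhibitors. Phospho-ERK1/2 was measured by MSD whole-cell lysate immunoassay, and IC50 was derived by 4-parameter logistic fit.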

[4] = Homo sapiens, ASPC1, 2 h, read-out: 2 h p-ERK (AsPC-1 cells), IC50 (μM), AsPC-1 cells, 2 h compound treatment
[5] = read-out: 2 h p-ERK (AsPC-1 cells), IC50, AsPC-1 cells, 2 h compound treatment

Chain of GDP-bound KRAS protein (aa 1-169), G12D and C118A; SOS-mediated nucleotide exchange (P01116 other isoform, or with tags, fused parts or gaps G12D/C118A): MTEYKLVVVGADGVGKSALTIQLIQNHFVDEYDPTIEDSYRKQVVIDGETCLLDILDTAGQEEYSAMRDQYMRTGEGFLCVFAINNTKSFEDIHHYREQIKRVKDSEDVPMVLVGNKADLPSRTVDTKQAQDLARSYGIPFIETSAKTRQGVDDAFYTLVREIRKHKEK
Chain of His-tagged KRAS G12D protein (P01116-2 other isoform, or with tags, fused parts or gaps G12D): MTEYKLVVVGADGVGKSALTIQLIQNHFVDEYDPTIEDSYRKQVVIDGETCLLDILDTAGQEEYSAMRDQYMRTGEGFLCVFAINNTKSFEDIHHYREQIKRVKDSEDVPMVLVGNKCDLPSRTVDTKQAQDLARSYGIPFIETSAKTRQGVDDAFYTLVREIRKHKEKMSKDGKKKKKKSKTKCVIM

IC50 [1] | IC50 [2] | IC50 [3, 4] | IC50 [3, 5] | Compound
3 nM | 3 nM | 0.061 µM |  | N#Cc1c(N)sc2c(F)ccc(-c3c(Cl)cc4c(N5CCCCC(C#N)C5)nc(OC[C@@]56CCCN5C[C@H](F)C6)nc4c3F)c12 (stereo partly drawn) [Example 57, 1-(7-(2-Amino-3-cyano-7-fluorobenzo[b]thiophen-4-yl)-6-chloro-8-fluoro-2-(((2R,7aS)-2-fluorotetrahydro-1H-pyrrolizin-7a(5H)-yl)methoxy)quinazolin-4-yl)azepane-3-carbonitrile]
5 nM | 3 nM | 0.05 µM |  | C=Cc1cc2c(N3CCOCC(C)(O)C3)nc(OC[C@@]34CCCN3C[C@H](F)C4)nc2c(F)c1-c1ccc(F)c2sc(N)c(C#N)c12 (stereo partly drawn) [Example 61, 2-Amino-7-fluoro-4-(8-fluoro-2-(((2R,7aS)-2-fluorotetrahydro-1H-pyrrolizin-7a(5H)-yl)methoxy)-4-(6-hydroxy-6-methyl-1,4-oxazepan-4-yl)-6-vinylquinazolin-7-yl)benzo[b]thiophene-3-carbonitrile]
3 nM | 1 nM |  | 0.025 µM | CCc1cc2c(N3CCOCC(C)(O)C3)nc(OC[C@@]34CCCN3C[C@H](F)C4)nc2c(F)c1-c1ccc(F)c2sc(N)c(C#N)c12 (stereo partly drawn) [Example 62, 2-Amino-4-(6-ethyl-8-fluoro-2-(((2R,7aS)-2-fluorotetrahydro-1H-pyrrolizin-7a(H)-yl)methoxy)-4-(6-hydroxy-6-methyl-1,4-oxazepan-4-yl)quinazolin-7-yl)-7-fluorobenzo[b]thiophene-3-carbonitrile]
4 nM | 3 nM |  | > 10 µM | CC1(O)COCCN(c2nc(OC[C@@]34CCCN3C[C@H](F)C4)nc3c(F)c(-c4ccc(F)c5sc(N)c(C#N)c45)c(O)cc23)C1 (stereo partly drawn) [Example 63, 2-Amino-7-fluoro-4-(8-fluoro-2-(((2R,7aS)-2-fluorotetrahydro-1H-pyrrolizin-7a (H)-yl)methoxy)-6-hydroxy-4-(6-hydroxy-6-methyl-1,4-oxazepan-4-yl)quinazolin-7-yl)benzo[b]thiophene-3-carbonitrile]
25 nM | 28 nM | 1.52 µM |  | N#Cc1c(N)sc2c(F)ccc(-c3c(Cl)cc4c(N5CCCC6(CC(O)C6)C5)nc(OC[C@@]56CCCN5C[C@H](F)C6)nc4c3F)c12 (stereo partly drawn) [Example 64, 2-Amino-4-(6-chloro-8-fluoro-2-(((2R,7aS)-2-fluorotetrahydro-1H-pyrrolizin-7a(5H)-yl)methoxy)-4-(2-hydroxy-6-azaspiro[3.5]nonan-6-yl)quinazolin-7-yl)-7-fluorobenzo[b]thiophene-3-carbonitrile]
12 nM | 6 nM | 0.33 µM |  | C[C@@H]1[C@H](O)CCN1c1nc(OC[C@@]23CCCN2C[C@H](F)C3)nc2c(F)c(-c3ccc(F)c4sc(N)c(C#N)c34)c(Cl)cc12 [Example 65, 2-Amino-4-(6-chloro-8-fluoro-2-(((2R,7aS)-2-fluorotetrahydro-1H-pyrrolizin-7a(5H)-yl)methoxy)-4-((2R,3R)-3-hydroxy-2-methylpyrrolidin-1-yl)quinazolin-7-yl)-7-fluorobenzo[b] thiophene-3-carbonitrile]
24 nM | 16 nM | 0.586 µM |  | C[C@@H]1CCCN1c1nc(OC[C@@]23CCCN2C[C@H](F)C3)nc2c(F)c(-c3ccc(F)c4sc(N)c(C#N)c34)c(Cl)cc12 [Example 66, 2-Amino-4-(6-chloro-8-fluoro-2-(((2R,7aS)-2-fluorotetrahydro-1H-pyrrolizin-7a(5H)-yl)methoxy)-4-((R)-2-methylpyrrolidin-1-yl)quinazolin-7-yl)-7-fluorobenzo[b] thiophene-3-carbonitrile]
34 nM | 19 nM | 0.845 µM |  | N#Cc1c(N)sc2c(F)ccc(-c3c(Cl)cc4c(C5=CCCOC5)nc(OC[C@@]56CCCN5C[C@H](F)C6)nc4c3F)c12 [Example 70, 2-Amino-4-(6-chloro-4-(5,6-dihydro-2H-pyran-3-yl)-8-fluoro-2-(((2R,7aS)-2-fluorotetrahydro-1H-pyrrolizin-7a(5H)-yl)methoxy)quinazolin-7-yl)-7-fluorobenzo[b]thiophene-3-carbonitrile bis(2,2,2-trifluoroacetate)]
11 nM | 5 nM | 0.185 µM |  | N#Cc1c(N)sc2c(F)ccc(-c3c(Cl)cc4c(C5CC5)nc(OC[C@@]56CCCN5C[C@H](F)C6)nc4c3F)c12 [Example 71, 2-Amino-4-(6-chloro-4-cyclopropyl-8-fluoro-2-(((2R,7aS)-2-fluorotetrahydro-1H-pyrrolizin-7a(5H)-yl)methoxy)quinazolin-7-yl)-7-fluorobenzo[b]thiophene-3-carbonitrile bis(2,2,2-trifluoroacetate)]
